Measurements from patent US10709745B2, “Tropic cell based virotherapy for the treatment of cancer” (priority 2013, dated 2020).

Tests used:
NSCs (HB1.F3-CD) = test: CRAd-S-pk7 replication in NSCs treated with XRT-TMZ (E1A qPCR, titer); assay type: cell-based, human; conditions: day 4; TMZ 100 µM
Description: FIGS. 41A, 41B and 41C show evaluation of CRAd-Survivin-pk7 (CRAd-S-pk7) replication in neural stem cells (NSCs) treated with XRT-TMZ according to one embodiment. Viral replication of CRAd-S-pk7 was measured by quantitative real-time polymerase chain reaction and presented as a number of viral E1A copies per nanogram of DNA from infected NSCs. (FIG. 41A, 41B): Viral replication was evaluated daily up to 96 hours after treatment with 0, 10, 50, or 100 µM TMZ (FIG. 41A) and 0, 2, or 4 Gy of XRT (FIG. 41B). (FIG. 41C): CRAd-S-pk7 viral titer levels 96 hours after XRT-TMZ treatment of infected NSCs. […] Abbreviations: DMSO, dimethyl sulfoxide; IU, infectious units; TMZ, temozolomide; XRT, radiation therapy.
To detect the level of viral replication, NSCs were infected with 50 IU of CRAd-S-pk7 and treated with XRT-TMZ. […] Adenoviral E1A gene expression was quantified via qRTPCR using iQ SYBR Green supermix (Bio-Rad, Hercules, Calif., http://www.bio-rad.com), using primers and protocol previously described (Sonabend et al. 2009). The quantification of infectious viral progeny of NSCs was conducted using the Adeno-X rapid titer kit protocol (Clontech, Mountain View, Calif., http://www.clontech.com) as described elsewhere (Thaci et al. 2012). The titration unit (IU/ml) values quantified through this protocol are similar to plaque-forming units. […]

GBM43 = test: TMZ IC50 with simultaneous XRT; assay type: cell-based; conditions: Homo sapiens; treated with XRT (2 Gy) simultaneously
Description: (§1) For all studies, the cells and mice received XRT in accordance with the University of Chicago's radiation safety guidelines and protocols. All cells received a single dose of 2 Gy XRT. For animal studies, 10 Gy fractioned dose radiotherapy (2 Gy for 5 consecutive days) was used. The animals were irradiated with a lead cover shielding their entire body, with only their heads exposed. […] For in vivo studies, the mice received 2.5, 5, 10, or 30 mg/kg TMZ via intraperitoneal injection.

HB1.F3-CD = test: TMZ IC50 with simultaneous XRT; assay type: cell-based; conditions: Homo sapiens; treated with XRT (2 Gy) simultaneously
Description: as §1
NSCs have an inherent pathotropism toward glioma, which is critical for their utility as cell carriers. Therefore, it is critical that such intrinsic molecular properties and phenotypes of NSCs are maintained during radio-chemotherapy (XRT-TMZ). […] Oct4, a marker of self-renewal for undifferentiated cells, was expressed in 87.6±1.1% of the loaded NSCs. […] The percentage of Oct4 positive cells decreased to 81±2% (*, p<0.05), whereas the MFI was not reduced. […] Because of the high priority of safety when working with the undifferentiated v-myc immortalized HB1.F3-CD stem cell line (Kim et al. 2008), an in vivo safety monitoring experiment was performed to test the effect of XRT-TMZ on loaded HB1.F3-CD cellular transformation. CRAd-S-pk7-loaded NSCs were implanted in the brains of nude mice with no tumor burden. […]

[1] = human, in vivo; cited from earlier work
[2] = tested on: U87MG intracranial glioma xenografts; test: U87MG intracranial xenograft, TMZ and CRAd-S-pk7 combination survival; assay type: in vivo, mice
Description: FIGS. 11A, 11B and 11C show in vivo anti-tumor activity of CRAd-S-pk7 in combination with TMZ according to one embodiment. (FIG. 11A) Five consecutive injections of TMZ at 70 mg/kg/day (▾) achieve 100% survival for 80 days post U87MG implantation, whereas 5 TMZ injections at 10 mg/kg/day (∘) had significant increase in survival compared to mock treatment ( )(p<0.05).
Because temozolomide (TMZ) is the standard of care for patients with GBM, the efficacy of TMZ and CRAd-S-pk7 combination was evaluated in vivo in mice with U87MG intracranial (i.c.) glioma xenografts. To employ a dose that resembles the partial therapeutic effect of TMZ seen in the clinical scenario, different doses of TMZ were tested. Based on those studies, a dose of 10 mg/kg/day×5 days of intraperitoneal (i.p.) TMZ was chosen to study the efficacy of a TMZ and CRAd-S-pk7 combination treatment, since this dose led to an increase in survival but remained non-curative (FIG. 11A) (log-rank test, p<0.05). Additionally, different doses of i.c. CRAd-S-pk7 injections were tested to investigate which dose provides an increase in survival that could be further enhanced by the addition of co-adjuvant TMZ. A dose of 3×10^9 vp/mouse×2 injections of CRAd-S-pk7 was chosen for testing the therapeutic effects of TMZ+CRAd-S-pk7 combination, since it led to a partial efficacy that could be further enhanced (FIG. 11B) (log-rank test p<0.05).
Based on the above findings, the combination of TMZ and CRAd-S-pk7 was tested for efficacy in terms of survival (FIG. 11C). The combination of TMZ (10 mg/kg/day×5) plus two i.c. injections of CRAd-S-pk7 3×10^9 vp/mouse led to a 90% of long term survivors (>90 days) (LTS). […] Consistent with the finding of an additive cytotoxic effect of TMZ and CRAd-S-pk7 in vitro experiments, this treatment combination led to an improved survival in mice bearing intracranial human glioma xenografts.

SMILES: Cn1nnc2c(C(N)=O)ncn2c1=O [TMZ, temozolomide]
- decrease in E1A copies per nanogram of DNA (NSCs (HB1.F3-CD)): 3 fold
- IC50 (GBM43): 37 µM
- IC50 (HB1.F3-CD): 15 µM
- intratumoral concentration (likely range) [1]: 5 to 50 µM
- peak concentration in patient's blood [1]: 50 µmol/L
- peak concentration in the cerebral spinal fluid [1]: 5 µmol/L
- median survival ([2]; TMZ 10 mg/kg/day×5 alone or CRAd-S-pk7 3×10^9 vp/mouse×2 alone): 51 days
- long term survivors (>90 days) (LTS) ([2]; TMZ 10 mg/kg/day×5 i.p., CRAd-S-pk7 3×10^9 vp/mouse×2 i.c., alone or combined): 7%
- survival for 80 days post U87MG implantation ([2]; TMZ 70 mg/kg/day, five consecutive injections): 100%
